Laboratory results taken from ChEMBL document CHEMBL5154787 (J Med Chem, 2022).

What was measured:
[1] = molecular target: AP2-associated protein kinase 1 (Mus musculus, UniProt Q3UHJ0); test: Displacement of 3H-LP-927443 from AAK1 in C57BL6 mouse brain homogenate assessed as inhibition constant incubated for 1 hr by liquid scintillation counter analysis; type: tissue-based
[2] = molecular target: AP2-associated protein kinase 1 (Homo sapiens, UniProt Q2M2I8); test: Inhibition of full length human AAK1 expressed in HEK293F cells assessed as suppression of AP2 phosphorylation measured after 3 hrs by Western blot analysis based cellular assay; type: cell-based
[3] = Metabolic stability in human liver microsomes assessed as parent compound remaining at 0.5 uM incubated for 10 mins in presence of NADPH by LC-MS/MS analysis; type: ADME, Microsome; settings: read-out: Stability
[4] = Metabolic stability in mouse liver microsomes assessed as parent compound remaining at 0.5 uM incubated for 10 mins in presence of NADPH by LC-MS/MS analysis; type: ADME, Microsome; settings: for remaining at 10 min, 0.5 µM: liver microsomes, read-out: Stability
Cytochrome P450 3A4 = Cytochrome P450 3A4 (Homo sapiens, UniProt P08684); test: Inhibition of CYP3A4 (unknown origin) incubated for 10 mins in presence of NADPH by LC-MS/MS analysis; type: ADME
[5] = Total body clearance in rat at 3 mg/kg, po or 2 mg/kg, iv; type: ADME, organism-based; settings: in vivo, read-out: CLt/F
[6] = Oral bioavailability in rat at 3 mg/kg or 2 mg/kg,iv; type: ADME, organism-based; settings: in vivo
[7] = Permeability of compound at pH 5.5 incubated for 4 hrs by PAMPA assay; type: ADME; settings: read-out: permeability
[8] = Permeability of compound at pH 7.4 incubated for 4 hrs by PAMPA assay; type: ADME; settings: read-out: permeability
[9] = Permeability across apical to basolateral side in human Caco-2 cells; type: ADME, cell-based; settings: read-out: permeability
[10] = Permeability across basolateral to apical side in human Caco-2 cells; type: ADME, cell-based; settings: read-out: permeability
[11] = Protein binding in human plasma assessed as unbound fraction measured after 3 hrs by LC/MS/MS analysis; type: ADME, cell-free
[12] = Protein binding in rat plasma assessed as unbound fraction measured after 3 hrs by LC/MS/MS analysis; type: ADME, cell-free
[13] = Metabolic stability in human liver microsomes assessed as half life incubated at 0.5 uM for 10 mins in presence of NADPH by LC-MS/MS analysis; type: ADME, Microsome
[14] = Metabolic stability in rat liver microsomes assessed as half life incubated at 0.5 uM for 10 mins in presence of NADPH by LC-MS/MS analysis; type: ADME, Microsome
[15] = Metabolic stability in cynomolgus monkey liver microsomes assessed as half life incubated at 0.5 uM for 10 mins in presence of NADPH by LC-MS/MS analysis; type: ADME, Macaca fascicularis, Microsome
[16] = Metabolic stability in dog microsomes assessed as half life incubated at 0.5 uM for 10 mins in presence of NADPH by LC-MS/MS analysis; type: ADME, Canis lupus familiaris, Liver, Microsome
Cytochrome P450 1A2 = molecular target: T1, Cytochrome P450 1A2 (Homo sapiens, UniProt P05177); test: Inhibition of CYP1A2 (unknown origin) incubated for 10 mins in presence of NADPH by LC-MS/MS analysis; type: ADME
T1 sequence (P05177 whole entry): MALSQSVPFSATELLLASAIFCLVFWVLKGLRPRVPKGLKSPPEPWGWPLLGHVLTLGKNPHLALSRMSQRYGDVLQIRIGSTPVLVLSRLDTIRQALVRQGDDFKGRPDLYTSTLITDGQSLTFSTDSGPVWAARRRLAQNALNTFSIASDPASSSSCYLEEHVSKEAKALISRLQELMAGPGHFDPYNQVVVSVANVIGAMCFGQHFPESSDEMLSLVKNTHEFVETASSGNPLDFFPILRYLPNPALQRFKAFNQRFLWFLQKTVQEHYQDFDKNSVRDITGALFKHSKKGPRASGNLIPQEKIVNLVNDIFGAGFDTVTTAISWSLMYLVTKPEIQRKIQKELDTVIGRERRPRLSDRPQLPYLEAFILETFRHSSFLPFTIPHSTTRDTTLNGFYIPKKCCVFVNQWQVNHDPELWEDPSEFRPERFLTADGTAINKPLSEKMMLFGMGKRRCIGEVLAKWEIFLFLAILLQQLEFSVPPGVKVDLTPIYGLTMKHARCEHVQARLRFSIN

Cytochrome P450 2C19 = Cytochrome P450 2C19 (Homo sapiens, UniProt P33261); test: Inhibition of CYP2C19 (unknown origin) incubated for 10 mins in presence of NADPH by LC-MS/MS analysis; type: ADME
Cytochrome P450 2C9 = Cytochrome P450 2C9 (Homo sapiens, UniProt P11712); test: Inhibition of CYP2C9 (unknown origin) incubated for 10 mins in presence of NADPH by LC-MS/MS analysis; type: ADME
Cytochrome P450 2D6 = Cytochrome P450 2D6 (Homo sapiens, UniProt P10635); test: Inhibition of CYP2D6 (unknown origin) incubated for 10 mins in presence of NADPH by LC-MS/MS analysis; type: ADME
Cytochrome P450 2B6 = molecular target: T2, Cytochrome P450 2B6 (Homo sapiens, UniProt P20813); test: Inhibition of CYP2B6 (unknown origin) incubated for 10 mins in presence of NADPH by LC-MS/MS analysis; type: ADME
T2 sequence (P20813 whole entry): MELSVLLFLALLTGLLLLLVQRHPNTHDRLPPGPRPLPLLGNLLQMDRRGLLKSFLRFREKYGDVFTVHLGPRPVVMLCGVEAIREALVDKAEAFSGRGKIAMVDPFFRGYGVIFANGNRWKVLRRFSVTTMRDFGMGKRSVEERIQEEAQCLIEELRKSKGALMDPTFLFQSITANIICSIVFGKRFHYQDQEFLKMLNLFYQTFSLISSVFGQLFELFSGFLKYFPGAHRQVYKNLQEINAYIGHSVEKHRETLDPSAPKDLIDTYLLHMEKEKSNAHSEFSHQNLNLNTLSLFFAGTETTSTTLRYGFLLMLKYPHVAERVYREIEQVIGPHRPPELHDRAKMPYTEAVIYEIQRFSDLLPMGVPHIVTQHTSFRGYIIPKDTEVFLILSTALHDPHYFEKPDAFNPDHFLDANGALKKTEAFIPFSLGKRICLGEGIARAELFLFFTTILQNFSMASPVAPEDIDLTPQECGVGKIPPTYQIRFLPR

[17] = Inhibition of sodium channel voltage-sensing domain (unknown origin); set-up: species or system Homo sapiens
[18] = molecular target: BMP-2-inducible protein kinase (Homo sapiens, UniProt Q9NSY1); test: Inhibition of BIKE (unknown origin)
[19] = molecular target: MAP kinase-interacting serine/threonine-protein kinase 2 (Homo sapiens, UniProt Q9HBH9); test: Inhibition of MNK2 (unknown origin)
[20] = Cardiotoxicity in aortic ring (unknown origin) assessed as relaxation of phenylephrine induced aortic ring contraction at 10 uM incubated for 1 hr; type: toxicity, tissue-based, Aorta; set-up: scale not given: the % may be the effect or the level left; settings: human

Cytochrome P450 3A4, sequence (P08684 whole entry): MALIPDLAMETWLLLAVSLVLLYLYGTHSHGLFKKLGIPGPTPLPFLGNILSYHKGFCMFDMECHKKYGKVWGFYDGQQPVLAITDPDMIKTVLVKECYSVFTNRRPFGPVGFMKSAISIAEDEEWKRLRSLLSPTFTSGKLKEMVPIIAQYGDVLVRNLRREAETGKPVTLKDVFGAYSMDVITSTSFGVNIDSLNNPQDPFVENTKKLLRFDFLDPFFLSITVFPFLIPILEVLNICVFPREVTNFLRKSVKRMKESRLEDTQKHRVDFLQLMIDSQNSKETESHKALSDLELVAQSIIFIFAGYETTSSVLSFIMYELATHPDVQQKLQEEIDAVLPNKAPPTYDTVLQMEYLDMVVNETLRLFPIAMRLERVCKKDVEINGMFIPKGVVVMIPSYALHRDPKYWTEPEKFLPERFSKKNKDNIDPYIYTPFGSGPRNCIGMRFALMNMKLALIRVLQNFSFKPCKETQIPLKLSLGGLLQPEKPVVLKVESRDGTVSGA
MAP kinase-interacting serine/threonine-protein kinase 2, sequence (Q9HBH9 whole entry): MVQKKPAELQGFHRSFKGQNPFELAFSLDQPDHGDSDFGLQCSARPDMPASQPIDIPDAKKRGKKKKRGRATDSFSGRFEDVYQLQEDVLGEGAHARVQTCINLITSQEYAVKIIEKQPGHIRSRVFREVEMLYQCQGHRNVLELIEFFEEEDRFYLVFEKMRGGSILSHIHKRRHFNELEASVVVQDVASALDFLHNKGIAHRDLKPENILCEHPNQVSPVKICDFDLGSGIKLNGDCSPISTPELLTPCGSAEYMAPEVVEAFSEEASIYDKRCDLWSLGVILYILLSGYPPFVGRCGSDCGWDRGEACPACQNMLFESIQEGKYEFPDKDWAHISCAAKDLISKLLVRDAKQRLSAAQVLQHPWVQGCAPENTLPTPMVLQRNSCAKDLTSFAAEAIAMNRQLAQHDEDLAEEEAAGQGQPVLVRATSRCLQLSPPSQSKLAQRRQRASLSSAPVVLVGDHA
AP2-associated protein kinase 1 (Mus musculus, UniProt Q3UHJ0), sequence (Q3UHJ0 whole entry): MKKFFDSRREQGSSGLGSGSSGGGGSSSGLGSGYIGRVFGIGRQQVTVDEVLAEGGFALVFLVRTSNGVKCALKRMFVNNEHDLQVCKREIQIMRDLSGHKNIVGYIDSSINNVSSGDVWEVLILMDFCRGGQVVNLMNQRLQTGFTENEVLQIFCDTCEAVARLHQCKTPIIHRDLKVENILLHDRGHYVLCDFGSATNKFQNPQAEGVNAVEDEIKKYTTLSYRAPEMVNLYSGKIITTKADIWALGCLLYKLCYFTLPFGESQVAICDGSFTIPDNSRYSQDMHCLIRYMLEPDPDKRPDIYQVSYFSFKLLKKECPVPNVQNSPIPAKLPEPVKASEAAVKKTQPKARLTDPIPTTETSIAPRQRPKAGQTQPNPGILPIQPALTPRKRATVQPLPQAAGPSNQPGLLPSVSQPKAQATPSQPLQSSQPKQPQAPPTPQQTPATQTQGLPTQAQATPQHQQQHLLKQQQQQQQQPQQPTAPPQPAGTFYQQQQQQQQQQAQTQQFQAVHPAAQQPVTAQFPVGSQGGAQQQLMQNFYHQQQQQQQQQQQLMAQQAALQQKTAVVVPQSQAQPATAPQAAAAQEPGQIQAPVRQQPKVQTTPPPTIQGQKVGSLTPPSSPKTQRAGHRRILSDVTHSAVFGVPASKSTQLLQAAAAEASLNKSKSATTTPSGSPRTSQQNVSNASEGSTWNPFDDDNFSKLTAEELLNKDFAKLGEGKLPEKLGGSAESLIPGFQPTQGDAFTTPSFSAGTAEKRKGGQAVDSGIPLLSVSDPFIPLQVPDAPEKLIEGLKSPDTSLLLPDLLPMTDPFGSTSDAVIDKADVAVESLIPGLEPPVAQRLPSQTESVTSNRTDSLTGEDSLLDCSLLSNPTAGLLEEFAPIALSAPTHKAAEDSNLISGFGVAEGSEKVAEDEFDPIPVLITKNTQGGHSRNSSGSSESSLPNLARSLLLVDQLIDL
Cytochrome P450 2C9, sequence (P11712 whole entry): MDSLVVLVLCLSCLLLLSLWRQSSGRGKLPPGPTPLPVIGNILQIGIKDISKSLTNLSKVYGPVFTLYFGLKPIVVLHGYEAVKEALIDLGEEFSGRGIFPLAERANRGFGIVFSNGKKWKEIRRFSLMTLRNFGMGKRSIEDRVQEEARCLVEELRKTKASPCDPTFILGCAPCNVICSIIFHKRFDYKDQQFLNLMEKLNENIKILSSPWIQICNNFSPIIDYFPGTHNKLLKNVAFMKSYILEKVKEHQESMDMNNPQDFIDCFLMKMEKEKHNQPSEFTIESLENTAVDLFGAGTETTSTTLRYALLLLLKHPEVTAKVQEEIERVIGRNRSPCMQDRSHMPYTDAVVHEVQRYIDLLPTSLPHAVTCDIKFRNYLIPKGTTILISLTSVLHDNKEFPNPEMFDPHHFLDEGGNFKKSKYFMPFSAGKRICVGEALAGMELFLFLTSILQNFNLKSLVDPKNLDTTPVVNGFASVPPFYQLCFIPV
Cytochrome P450 2C19, sequence (P33261 whole entry): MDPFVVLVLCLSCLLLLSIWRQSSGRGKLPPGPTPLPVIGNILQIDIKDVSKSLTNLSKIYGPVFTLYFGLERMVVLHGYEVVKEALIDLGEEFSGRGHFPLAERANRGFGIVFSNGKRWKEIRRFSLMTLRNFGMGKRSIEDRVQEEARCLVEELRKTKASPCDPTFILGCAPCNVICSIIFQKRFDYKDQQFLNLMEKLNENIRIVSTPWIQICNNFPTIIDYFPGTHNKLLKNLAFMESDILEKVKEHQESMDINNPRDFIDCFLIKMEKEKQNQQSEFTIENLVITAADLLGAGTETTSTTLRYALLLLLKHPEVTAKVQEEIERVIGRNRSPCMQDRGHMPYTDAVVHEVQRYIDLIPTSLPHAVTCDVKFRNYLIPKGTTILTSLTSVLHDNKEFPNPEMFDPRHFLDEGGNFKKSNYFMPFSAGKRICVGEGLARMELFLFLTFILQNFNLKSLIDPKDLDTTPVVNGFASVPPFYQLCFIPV
AP2-associated protein kinase 1 (Homo sapiens, UniProt Q2M2I8), sequence (Q2M2I8 whole entry): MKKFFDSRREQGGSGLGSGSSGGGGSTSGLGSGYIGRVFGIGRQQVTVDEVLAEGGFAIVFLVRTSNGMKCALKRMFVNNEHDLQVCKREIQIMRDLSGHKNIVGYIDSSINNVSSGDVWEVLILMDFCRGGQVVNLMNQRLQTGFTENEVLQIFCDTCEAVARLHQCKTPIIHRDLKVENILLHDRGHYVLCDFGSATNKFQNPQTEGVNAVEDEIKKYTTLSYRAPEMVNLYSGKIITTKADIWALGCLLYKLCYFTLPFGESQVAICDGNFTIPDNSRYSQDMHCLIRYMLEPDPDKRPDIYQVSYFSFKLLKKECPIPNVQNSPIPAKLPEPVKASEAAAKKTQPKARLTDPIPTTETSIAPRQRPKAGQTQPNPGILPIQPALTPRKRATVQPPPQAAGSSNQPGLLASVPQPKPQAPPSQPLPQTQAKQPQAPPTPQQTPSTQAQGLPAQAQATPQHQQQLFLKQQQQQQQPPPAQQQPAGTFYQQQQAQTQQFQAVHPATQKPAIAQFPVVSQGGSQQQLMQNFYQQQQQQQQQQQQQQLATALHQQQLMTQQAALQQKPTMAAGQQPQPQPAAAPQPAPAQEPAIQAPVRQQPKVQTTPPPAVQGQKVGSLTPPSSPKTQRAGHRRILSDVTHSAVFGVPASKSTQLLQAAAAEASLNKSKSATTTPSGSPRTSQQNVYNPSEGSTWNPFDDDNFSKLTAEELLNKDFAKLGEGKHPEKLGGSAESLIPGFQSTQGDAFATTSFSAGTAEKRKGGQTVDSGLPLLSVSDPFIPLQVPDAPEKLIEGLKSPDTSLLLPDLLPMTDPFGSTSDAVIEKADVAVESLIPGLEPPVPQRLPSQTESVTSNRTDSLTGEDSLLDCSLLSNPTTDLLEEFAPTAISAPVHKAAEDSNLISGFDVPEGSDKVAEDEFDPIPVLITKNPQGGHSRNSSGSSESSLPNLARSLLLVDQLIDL
BMP-2-inducible protein kinase, sequence (Q9NSY1 whole entry): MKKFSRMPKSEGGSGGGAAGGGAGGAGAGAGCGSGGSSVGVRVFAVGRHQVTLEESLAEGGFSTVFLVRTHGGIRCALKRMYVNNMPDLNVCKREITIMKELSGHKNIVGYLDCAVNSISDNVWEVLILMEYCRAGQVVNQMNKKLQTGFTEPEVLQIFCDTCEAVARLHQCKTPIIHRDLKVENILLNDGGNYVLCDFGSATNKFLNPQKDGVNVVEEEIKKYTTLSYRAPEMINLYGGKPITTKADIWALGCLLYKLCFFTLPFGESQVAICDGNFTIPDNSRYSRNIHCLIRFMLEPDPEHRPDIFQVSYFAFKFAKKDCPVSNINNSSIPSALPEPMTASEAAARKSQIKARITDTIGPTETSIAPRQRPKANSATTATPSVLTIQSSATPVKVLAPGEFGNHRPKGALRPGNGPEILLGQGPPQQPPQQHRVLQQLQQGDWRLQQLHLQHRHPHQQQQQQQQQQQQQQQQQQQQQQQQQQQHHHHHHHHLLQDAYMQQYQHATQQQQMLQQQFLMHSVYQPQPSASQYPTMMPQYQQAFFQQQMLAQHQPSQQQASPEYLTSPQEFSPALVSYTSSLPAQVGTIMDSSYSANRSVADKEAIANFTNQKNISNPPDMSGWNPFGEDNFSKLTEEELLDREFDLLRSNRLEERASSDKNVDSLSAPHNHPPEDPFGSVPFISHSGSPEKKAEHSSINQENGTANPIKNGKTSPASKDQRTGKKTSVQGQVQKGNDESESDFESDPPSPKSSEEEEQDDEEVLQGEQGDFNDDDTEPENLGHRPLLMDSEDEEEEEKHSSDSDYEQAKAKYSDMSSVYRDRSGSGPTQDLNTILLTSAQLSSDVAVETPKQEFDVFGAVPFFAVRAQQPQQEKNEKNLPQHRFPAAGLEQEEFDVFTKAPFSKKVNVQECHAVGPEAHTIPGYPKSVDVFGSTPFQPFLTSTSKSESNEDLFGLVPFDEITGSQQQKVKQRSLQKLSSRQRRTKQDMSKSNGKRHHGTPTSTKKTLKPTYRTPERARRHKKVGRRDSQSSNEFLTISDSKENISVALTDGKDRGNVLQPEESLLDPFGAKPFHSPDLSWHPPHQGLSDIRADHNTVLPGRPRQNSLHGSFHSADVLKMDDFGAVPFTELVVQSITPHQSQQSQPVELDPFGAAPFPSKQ

SMILES: COC(=O)Nc1cc(-c2ccc(OC[C@@](C)(N)CC(C)C)c(C)n2)ccn1
- Ki [1]: 290 pM
- IC50 [2]: 0.0024 µM
- remaining at 10 min, 0.5 µM [3]: 95%
- remaining at 10 min, 0.5 µM [4]: 93%
- IC50 (Cytochrome P450 3A4): > 20 µM
- CL/F [5]: 17.3 mL/min/kg
- bioavailability [6]: 94%
- Papp at 4 h [7]: 82.4 ×10⁻⁶ cm/s
- Papp at 4 h [8]: 86.4 ×10⁻⁶ cm/s
- Papp A→B [9]: 35.7 ×10⁻⁶ cm/s
- Papp B→A [10]: 38.4 ×10⁻⁶ cm/s
- fraction unbound at 3 h [11]: 0.18
- fraction unbound at 3 h [12]: 0.225
- half-life at 0.5 µM [13]: > 2 h
- half-life at 0.5 µM [14]: 1.42 h
- half-life at 0.5 µM [15]: 0.85 h
- half-life at 0.5 µM [16]: 1.68 h
- IC50 (Cytochrome P450 1A2): > 20 µM
- IC50 (Cytochrome P450 2C19): > 20 µM
- IC50 (Cytochrome P450 2C9): > 20 µM
- IC50 (Cytochrome P450 2D6): > 20 µM
- IC50 (Cytochrome P450 2B6): > 20 µM
- IC50 [17]: 39 µM
- IC50 [18]: 0.09 µM
- IC50 [19]: 1.5 µM
- Activity [20]: 36%

SMILES: COC(=O)Nc1cc(-c2cnc(OC[C@@](C)(N)CC(C)C)c(C)c2)ccn1
- Ki [1]: 210 pM
- IC50 [2]: 0.0034 µM
- remaining at 10 min, 0.5 µM [3]: 92%
- Stability ([4]; microsomes, 10 min, 0.5 µM): 68%
- IC50 (Cytochrome P450 3A4): > 20 µM
- CL/F [5]: 63.6 mL/min/kg
- bioavailability [6]: 77%
- Papp at 4 h [7]: 56.5 ×10⁻⁶ cm/s
- Papp at 4 h [8]: 69.7 ×10⁻⁶ cm/s
- Papp A→B [9]: 17.2 ×10⁻⁶ cm/s
- Papp B→A [10]: 17.3 ×10⁻⁶ cm/s
- fraction unbound at 3 h [11]: 0.115
- fraction unbound at 3 h [12]: 0.105
- half-life at 0.5 µM [13]: > 2 h
- half-life at 0.5 µM [14]: 0.7 h
- half-life at 0.5 µM [15]: 1.28 h
- half-life at 0.5 µM [16]: > 2 h
- IC50 (Cytochrome P450 1A2): > 20 µM
- IC50 (Cytochrome P450 2C19): > 20 µM
- IC50 (Cytochrome P450 2C9): > 20 µM
- IC50 (Cytochrome P450 2D6): > 20 µM
- IC50 (Cytochrome P450 2B6): > 20 µM
- IC50 [17]: 11.5 µM
- IC50 [18]: 0.01 µM
- IC50 [19]: 1.3 µM
- Activity [20]: 66%

SMILES: CC(C)C[C@](C)(N)COc1cnc(-c2ccnc(C(F)F)c2)cc1C(F)F
- Ki [1]: 50 pM
- IC50 [2]: 0.0005 µM
- remaining at 10 min, 0.5 µM [3]: 89%
- remaining at 10 min, 0.5 µM [4]: 89%
- IC50 (Cytochrome P450 3A4): > 20 µM
- CL/F [5]: 119 mL/min/kg
- bioavailability [6]: 22%
- Papp at 4 h [7]: 40.6 ×10⁻⁶ cm/s
- Papp at 4 h [8]: 45.8 ×10⁻⁶ cm/s
- Papp A→B [9]: 23.5 ×10⁻⁶ cm/s
- Papp B→A [10]: 15.3 ×10⁻⁶ cm/s
- fraction unbound at 3 h [11]: 0.125
- fraction unbound at 3 h [12]: 0.122
- half-life at 0.5 µM [13]: > 2 h
- half-life at 0.5 µM [14]: 1.27 h
- half-life at 0.5 µM [15]: 0.293 h
- half-life at 0.5 µM [16]: 0.433 h
- IC50 (Cytochrome P450 1A2): > 20 µM
- IC50 (Cytochrome P450 2C19): > 20 µM
- IC50 (Cytochrome P450 2C9): > 20 µM
- IC50 (Cytochrome P450 2D6): > 20 µM
- IC50 (Cytochrome P450 2B6): > 20 µM
- IC50 [17]: 7.4 µM
- IC50 [18]: 0.18 µM
- IC50 [19]: 1.6 µM
- Activity [20]: 58%
